From patent US20260284079A1, “LIPID PRODRUGS OF ALLOPR[…] USES THEREOF” (Seaport Therapeutics, Inc., priority 2023, published 2026) come the findings set out here.

Molecules are shown by their SMILES.

This assay in a line: Stanford Sleepiness Scale (SSS) and MOAA/S. The assay is classed as in vivo, human. The text has this: Part 1 Exploratory Objectives: To characterize the pharmacodynamic (PD) effects, and the PK/PD relationship, of Compound 1 on select clinical outcome assessments (COAs) of central nervous system effects following ascending single oral doses of Compound 1 (e.g., Stanford Sleepiness Scale (SSS), Modified Observer's Assessment of Alertness/Sedation Scale (MOAA/S), Sleep Quality Scale (SQS)). Part 1 Exploratory Endpoints: Changes from Baseline in SSS, MOAA/S, and/or SQS.
Part 3 Exploratory Objective: to characterize the PD effects, and the PK/PD relationships of Compound 1 on select effects following multiple oral doses of Compound 1. Part 3 Exploratory Endpoints: changes from baseline in qEEG, SSS, MOAA/S, the SQS, Cogstate, Body Sway, and video-oculography (VOG) assessment.
Participants were assessed using metrics as outlined below. The SSS is a one item self-report questionnaire that measures and quantifies progressive steps in the level of sleepiness throughout the day. Subjects select one of seven statements that best represents their level of perceived sleepiness at a given timepoint, as depicted in Table 7.
The MOAA/S is a clinical outcome assessment that measures a subject's level of alertness/sedation as determined by a rater; in its modified form, it uses only the responsiveness component of the original Observer's Assessment of Alertness/Sedation Scale. Responsiveness, as a measure of sedation, was assessed and scored on a scale of 0 to 5 as outlined in Table 8.

With `CCCCCCCC(=O)OCC(COC(=O)CCCCCCC)OC(=O)CC(C)CC(=O)OCOC(=O)O[C@@H]1CC[C@@]2(C)[C@@H](CC[C@@H]3[C@@H]2CC[C@]2(C)[C@@H](C(C)=O)CC[C@@H]32)C1` (stereo partly drawn) [Compound 1], the “change from baseline in SSS and MOAA/S” value is reported as “greater magnitude of effect from baseline” (Cohort 6 (Part 3), 500 mg, compared to lower doses); “low magnitude of change from baseline” (Cohorts 4, 5, 7, 8 (Part 3), 250 mg and 375 mg, early days of dosing). The “change from baseline in SSS and MOAA/S score” value (Cohorts 1, 2, 2b (Part 1), single doses) was “dose-dependent increase from baseline in the Stanford Sleepiness Scale (SSS) and a decrease from baseline in the MOAA/S score”. Also, for the setting “Part 1”, the “time of maximum changes in SSS and MOAA/S” value is 3-5 hours post-dose. Moreover, the “time of return to baseline levels of SSS and MOAA/S” value (Part 1, all treatment groups) is given as ≤ 12 hours post-dose. In addition, the “difference in mean change from baseline between fed (HF or LF) and fasted states” value (cohort 3, 140 mg) is on record as “no apparent difference”.
